From US9181259B2 (LEO PHARMA A/S, priority 2012, dated 2015)
Counter-ions that a name gives are not always drawn.

How the values were obtained:
NK1 receptor = target: T1, NK1 receptor (Homo sapiens, UniProt P25103); experiment: NK1 receptor mediated intracellular [Ca2+] mobilization in U251 MG cells using FLIPR; type: cell-based; details: antagonist potency against Substance P (EC80), normalized to 100 nM Aprepitant, read-out: U251MG (FLIPR pIC50) (converted)
T1 construct: Measurement of NK1 Receptor Mediated Intracellular [Ca^2+]; Mobilization in U251 MG Cells Using FLIPR; endogenous in cells; host or cells: U251 MG cells
T1 sequence (P25103 whole entry): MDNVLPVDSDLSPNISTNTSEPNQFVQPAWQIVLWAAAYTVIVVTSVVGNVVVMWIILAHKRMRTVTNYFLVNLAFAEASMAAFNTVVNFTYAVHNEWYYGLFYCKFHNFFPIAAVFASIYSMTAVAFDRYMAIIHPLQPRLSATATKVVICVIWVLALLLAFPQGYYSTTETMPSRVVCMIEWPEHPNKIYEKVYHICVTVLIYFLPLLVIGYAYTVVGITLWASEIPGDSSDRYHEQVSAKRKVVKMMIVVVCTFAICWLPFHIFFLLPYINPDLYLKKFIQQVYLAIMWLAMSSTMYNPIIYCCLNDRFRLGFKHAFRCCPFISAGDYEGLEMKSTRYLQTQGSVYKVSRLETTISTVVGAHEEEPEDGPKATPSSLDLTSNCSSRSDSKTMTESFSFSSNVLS
Outline: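 Fluo-4-loaded U251 MG cells were preincubated with compound (0.5% DMSO final), with any agonist effect read for 5 min, then 10 min more at 37 °C before Substance P at EC80. Peak FLIPR fluorescence change was read, and IC50 came from a four-parameter fit as the midpoint between fitted top and bottom.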

[1] = Hepatic intrinsic clearance following incubation in human liver microsomes; type: in vitro ADME; details: NADPH regenerating system, 0-30 min, 37 °C
Method: Hepatic Extraction Ratio from Hepatic Intrinsic Clearance Following Incubation in Human Liver Microsomes
The general procedure consists of an automated incubation system and LC-MS/MS analysis with human liver microsomes. Human liver microsomes are thawed rapidly in a waterbath at 37° C. and kept on ice until use. The human liver microsomes are diluted with 50 mM potassium phosphate buffer pH 7.4 to a protein concentration of 0.55 mg/mL. Test compounds and positive controls (Verapamil and Dextromethorphan, positive controls for CYP3A4 for CYP2D6 isoforms, respectively) are dissolved in methanol (or other appropriate solvent, if necessary) in order to obtain a 5 mM solution which is further diluted to the concentration of 50 μM. The stock solutions are prepared immediately before the test.
5 μL of 50 μM test compounds and controls are added to 445 μL-of the 0.55 mg/mL microsomes solution and the incubation mixture are pre-warmed at 37° C. for 5 minutes.
The incubation reactions are initiated by adding 50 μL of pre-warmed NADPH regenerating system to the incubation mixtures. 50 μL-aliquots will be taken from the incubation mixtures at: 0, 3, 6, 9, 15 and 30 minutes and the reactions are stopped by adding 100 μL of ACN containing Rolipram, used as generic Internal Standard (1S). Samples are then diluted with 120 μL of Milli-Q water and centrifuged at 3000 rpm for 10 minutes, prior the LC-MS/MS analysis.
The integrated peak areas for test compounds at the selected time points are divided by the respective peak areas of the IS and the percent of parent remaining is calculated by normalizing the peak area ratio of parent to IS at 0 min. Observed rate constant (kobs) for parent degradation is calculated by determining the slope of the line of the graph of the natural log of percentage parent remaining versus time of incubation. From the rate of depletion (min-1) and volume of the incubation (mL), clearance is estimated. This is scaled for the protein in the incubation relative to that in the intact liver, for all species (mL/min/g liver).
Values for the Human in vitro Clint are expressed as mL/min/g liver.
Assuming a liver weight of 25.7 g/kg and a liver blood flow of 20.7 mL/min/kg, the hepatic extraction ratio, Eh, can be derived from the Human in vitro Clint:
E.g. a Human in vitro Clint of 2.4 mL/min/g liver corresponds to a hepatic extraction ratio of 75%.
Some compounds of the present invention were tested according to example 121.

| Structure (SMILES) | IC50 (NK1 receptor) | Human in vitro Clint (mL/min/g liver) [1] |
| --- | --- | --- |
| Cc1ccccc1[C@H]1[C@@H]2CC3(CCOCC3)C(=O)N2CCN1C(=O)N(C)[C@H](C)c1cc(C(F)(F)F)cc(C(F)(F)F)c1 [Compound 100, (1′S,8a′S)-N-((R)-1-(3,5-bis(trifluoromethyl)phenyl)ethyl)-N-methyl-6′-oxo-1′-o-tolyloctahydro-1′H-spiro[pyran-4,7′-pyrrolo[1,2-a]pyrazine]-2′(6′H)-carboxamide] | 0.126 nM | 3.0 mL/min/g liver |
| CCc1cc([C@@H](C)N(C)C(=O)N2CCN3C(=O)C(CCO)(CCO)C[C@H]3[C@@H]2c2ccccc2C)cc(C(F)(F)F)c1 [Compound 110, (1S,8aS)-N-((R)-1-(3-ethyl-5-(trifluoromethyl)phenyl)ethyl)-7,7-bis(2-hydroxyethyl)-N-methyl-6-oxo-1-o-tolylhexahydropyrrolo[1,2-a]pyrazine-2(1H)-carboxamide] | 0.0631 nM | 13 mL/min/g liver |
| Cc1ccccc1[C@H]1[C@@H]2CC3(CCN(C)CC3)C(=O)N2CCN1C(=O)N(C)[C@H](C)c1cc(C(F)(F)F)cc(C(F)(F)F)c1 [Compound 105, (1′S,8a′S)-N-((R)-1-(3,5-bis(trifluoromethyl)phenyl)ethyl)-N,1-dimethyl-6′-oxo-1′-o-tolyltetrahydro-1′H-spiro[piperidine-4,7′-pyrrolo[1,2-a]pyrazine]-2′(6′H)-carboxamide, formic acid salt] | 0.24 nM | 1.2 mL/min/g liver |
| Cc1ccccc1[C@H]1[C@@H]2CC(CCO)(CCO)C(=O)N2CCN1C(=O)N(C)Cc1cc(Cl)cc(C(F)(F)F)c1 [Compound 79, (1S,8aS)-N-(3-chloro-5-(trifluoromethyl)benzyl)-7,7-bis(2-hydroxyethyl)-N-methyl-6-oxo-1-o-tolylhexahydropyrrolo[1,2-a]pyrazine-2(1H)-carboxamide] | 0.105 nM | 14 mL/min/g liver |
| Cc1ccccc1[C@H]1[C@@H]2CC(CO)(CO)C(=O)N2CCN1C(=O)N(C)[C@H](C)c1cc(Cl)cc(C(F)(F)F)c1 [Compound 108, (1S,8aS)-N-((R)-1-(3-chloro-5-(trifluoromethyl)phenyl)ethyl)-7,7-bis(hydroxymethyl)-N-methyl-6-oxo-1-o-tolylhexahydropyrrolo[1,2-a]pyrazine-2(1H)-carboxamide] | 0.0316 nM | 4.3 mL/min/g liver |
| Cc1cc([C@@H](C)N(C)C(=O)N2CCN3C(=O)C(CO)(CO)C[C@H]3[C@@H]2c2ccccc2C)cc(C(F)(F)F)c1 [Compound 103, (1S,8aS)-7,7-bis(hydroxymethyl)-N-methyl-N-((R)-1-(3-methyl-5-(trifluoromethyl)phenyl)ethyl)-6-oxo-1-o-tolylhexahydropyrrolo[1,2-a]pyrazine-2(1H)-carboxamide] | 0.0794 nM | 4.8 mL/min/g liver |
| Cc1cc([C@@H](C)N(C)C(=O)N2CCN3C(=O)C(CO)C[C@H]3[C@@H]2c2ccccc2C)cc(C(F)(F)F)c1 (stereo partly drawn) [Compound 102, (1S,8aS)-7-(hydroxymethyl)-N-methyl-N-((R)-1-(3-methyl-5-(trifluoromethyl)phenyl)ethyl)-6-oxo-1-o-tolylhexahydropyrrolo[1,2-a]pyrazine-2(1H)-carboxamide] | 0.214 nM | 5.6 mL/min/g liver |
| Cc1ccccc1C1C2CC(CCO)(CCO)CN2CCN1C(=O)N(C)Cc1cc(C(F)(F)F)cc(C(F)(F)F)c1 (single isomer, unassigned) [Compound 66, N-{[3,5-bis(trifluoromethyl)phenyl]methyl}-7,7-bis(2-hydroxyethyl)-N-methyl-1-(2-methylphenyl)-octahydropyrrolo[1,2-a]piperazine-2-carboxamide] | 0.0794 nM | 4.2 mL/min/g liver |
| COc1cc(CN(C)C(=O)N2CCN3C(=O)C(CCO)(CCO)C[C@H]3[C@@H]2c2ccccc2C)cc(C(F)(F)F)c1 [Compound 78, (1S,8aS)-7,7-bis(2-hydroxyethyl)-N-(3-methoxy-5-(trifluoromethyl)benzyl)-N-methyl-6-oxo-1-o-tolylhexahydropyrrolo[1,2-a]pyrazine-2(1H)-carboxamide] | 0.112 nM | 4.6 mL/min/g liver |
| Cc1ccccc1C1C2CC(CO)C(=O)N2CCN1C(=O)N(C)Cc1cc(C(F)(F)F)cc(C(F)(F)F)c1 (single isomer, unassigned) [Compound 22, N-{[3,5-bis(trifluoromethyl)phenyl]methyl}-7-(hydroxymethyl)-N-methyl-1-(2-methylphenyl)-6-oxo-octahydropyrrolo[1,2-a]piperazine-2-carboxamide] | 0.0513 nM | 0.8 mL/min/g liver |
| Cc1ccccc1[C@H]1[C@@H]2CCC(=O)N2CCN1C(=O)N(C)[C@H](C)c1cc(C(C)C)cc(C(F)(F)F)c1 [Compound 112, (1S,8aS)-N-((R)-1-(3-isopropyl-5-(trifluoromethyl)phenyl)ethyl)-N-methyl-6-oxo-1-o-tolylhexahydropyrrolo[1,2-a]pyrazine-2(1H)-carboxamide] | 0.0316 nM | 51 mL/min/g liver |
| Cc1ccccc1C1C2CC3(CCN(C)CC3)C(=O)N2CCN1C(=O)N(C)Cc1cc(C(F)(F)F)cc(C(F)(F)F)c1 (racemic) [Compound 45, N-{[3,5-bis(trifluoromethyl)phenyl]methyl}-N,1-dimethyl-4′-(2-methylphenyl)-1′-oxo-hexahydro-1′H-spiro[piperidine-4,2′-pyrrolo[1,2-a]piperazine]-5′-carboxamide] | 0.166 nM | 1.9 mL/min/g liver |
| Cc1ccccc1C1C2CC(CO)CN2CCN1C(=O)N(C)Cc1cc(C(F)(F)F)cc(C(F)(F)F)c1 (single isomer, unassigned) [Compound 52, N-{[3,5-bis(trifluoromethyl)phenyl]methyl}-7-(hydroxymethyl)-N-methyl-1-(2-methylphenyl)-octahydropyrrolo[1,2-a]piperazine-2-carboxamide; methanesulfonic acid salt] | 0.513 nM | 3.1 mL/min/g liver |
| Cc1ccccc1C1C2CC(CO)CN2CCN1C(=O)N(C)Cc1cc(C(F)(F)F)cc(C(F)(F)F)c1 (single isomer, unassigned) [Compound 49, N-{[3,5-bis(trifluoromethyl)phenyl]methyl}-7-(hydroxymethyl)-N-methyl-1-(2-methylphenyl)-octahydropyrrolo[1,2-a]piperazine-2-carboxamide] | 0.347 nM | 1.9 mL/min/g liver |
| Cc1ccccc1[C@H]1[C@H]2CCC(=O)N2CCN1C(=O)N(C)[C@H](C)c1cc(C(F)(F)F)cc(C(F)(F)F)c1 (single isomer, unassigned) [Compound 75] | 0.0316 nM | 32 mL/min/g liver |
| Cc1cc(CN(C)C(=O)N2CCN3C(=O)C(CCO)(CCO)C[C@H]3[C@@H]2c2ccccc2C)cc(C(F)(F)F)c1 [Compound 77, (1S,8aS)-7,7-bis(2-hydroxyethyl)-N-methyl-N-(3-methyl-5-(trifluoromethyl)benzyl)-6-oxo-1-o-tolylhexahydropyrrolo[1,2-a]pyrazine-2(1H)-carboxamide] | 0.0631 nM | 15 mL/min/g liver |
| Cc1ccccc1[C@H]1[C@@H]2CC(CCO)(CCO)C(=O)N2CCN1C(=O)N(C)[C@H](C)c1cccc(C(F)(F)F)c1 [Compound 88, (1S,8aS)-7,7-bis(2-hydroxyethyl)-N-methyl-6-oxo-1-o-tolyl-N-((R)-1-(3-(trifluoromethyl)phenyl)ethyl)hexa hydropyrrolo[1,2-a]pyrazine-2(1H)-carboxamide] | 0.0631 nM | 13 mL/min/g liver |
| Cc1ccccc1[C@H]1[C@@H]2CC(CO)(CO)C(=O)N2CCN1C(=O)N(C)[C@H](C)c1cc(C(F)(F)F)cc(C(F)(F)F)c1 [Compound 104, (1S,8aS)-N-((R)-1-(3,5-bis(trifluoromethyl)phenyl)ethyl)-7,7-bis(hydroxymethyl)-N-methyl-6-oxo-1-o-tolylhexahydropyrrolo[1,2-a]pyrazine-2(1H)-carboxamide] | 0.1 nM | 3.1 mL/min/g liver |
